# Laboratory results from publication PMC10504260, “Identification of a c-type heme oxygenase and its function during acclimation of cyanobacteria to nitrogen fluctuations” (Communications Biology, 2023).
# How the values were obtained:
# [1] = target: T1, Ssr1698 (cHO) (Synechocystis sp. PCC 6803, UniProt P73129); test: UV-visible assay of MP-11 (c-type heme) degradation with added biliverdin IXα; assay type: biochemical; conditions: product inhibition; substrate MP-11, ascorbate, catalase, PBS pH 7.4
# T1 construct: full-length 96-residue protein; GST fusion from pGEX-5X-1 (BamHI/XhoI) in E. coli BL21(DE3) pLysS, GST tag removed by Factor Xa, SEC; dimer
# T1 sequence (P73129 1-96): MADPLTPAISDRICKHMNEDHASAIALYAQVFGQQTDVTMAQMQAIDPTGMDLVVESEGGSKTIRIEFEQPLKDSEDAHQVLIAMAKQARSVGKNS
# [2] = target: T1, Ssr1698 (cHO); test: HPLC and LC-MS of reaction product; assay type: biochemical; conditions: substrate MP-11 (c-type heme), 10 mM ascorbic acid, 2 µM catalase, PBS pH 7.4, 2 h
# [3] = target: Ssr1698 (c-type heme oxygenase, cHO), purified tag-less apo-Ssr1698 (Synechocystis sp. strain PCC 6803); test: SEC; Superdex 200 Increase 10/300GL equilibrated with PBS buffer (pH 7.4); tag-less Ssr1698 after removal of GST by Factor Xa
# [4] = target: Ssr1698 (c-type heme oxygenase, cHO), purified tag-less apo-Ssr1698 (Synechocystis sp. strain PCC 6803); test: native gel or EMSA; clear native-PAGE (CN-PAGE) of purified tag-less Ssr1698; 5-12.5% acrylamide gradient gel, 0.01% DM and 0.025% deoxycholate in the cathode buffer, 4 °C
stoichiometry N [3],stoichiometry N [4],Compound,suppression of c-type heme degradation [1],HPLC and LC-MS of reaction product [2]
–,–,C=CC1=C(C)C(=Cc2[nH]c(C=C3N=C(C=C4NC(=O)C(C)=C4C=C)C(C)=C3CCC(=O)O)c(CCC(=O)O)c2C)NC1=O [biliverdin IXα],degradation of c-type heme is significantly suppressed after the addition of biliverdin IXα,"biliverdin IXα molecule, 11-amino acid peptide and free iron were identified in the reaction product"
2,2,"Ssr1698 (c-type heme oxygenase, cHO), purified tag-less apo-Ssr1698 (enzyme)",–,–
